This assay concerns the target aspartyl proteases, in particular, beta-secretase. Nature of the assay: Ki of the compounds listed in Tables 1 and 2 (no method described). The assay is classed as biochemical. Particulars: Table 1, compounds of formula Ia, W is -(CH2)n-.

One may read the Ki as a measure of affinity in units of concentration, obtained from inhibition or displacement. Read a high Ki as lower affinity. On to `Nc1ccc(S(=O)(=O)NCCC[C@H](NC(=O)OCC2c3ccccc3-c3ccccc32)C(=O)O)cc1` [Compound No. 69, Nδ-(4-aminobenzenesulfonyl)-Nα-(9-fluorenylmethoxycarbonyl)-L-ornithine], for which the Ki is 23800 nM.
The compound `O=C(N[C@@H](CNS(=O)(=O)c1ccc(Br)cc1)C(=O)O)OCC1c2ccccc2-c2ccccc21` [Compound No. 18, (S)-2-(9-fluorenylmethoxycarbonylamino)-3-(4-bromobenzenesulfonylamino)-propanoic Acid] displayed a Ki of 75000 nM.
In turn, `CC(C)CN([C@@H](CCCCNC(=O)/C=C/c1cccnc1)C(=O)O)S(=O)(=O)c1ccc([N+](=O)[O-])cc1` [Compound No. 164, Nα-isobutyl-Nα-(4-nitrobenzenesulfonyl)-Nε-(trans-3-(3-pyridyl)acryloyl)-L-lysine] returned a Ki greater than 300 nM.
`CC(C)CN([C@@H](CCCCNC(=O)C=Cc1cccc([N+](=O)[O-])c1)C(=O)O)S(=O)(=O)c1ccc([N+](=O)[O-])cc1` [Compound No. 108, Nα-isobutyl-Nα-(4-nitrobenzenesulfonyl)-Nε-(3-nitrocinnamoyl)-L-lysine] had a Ki greater than 300 nM.
In turn, `COc1cccc(CCC(=O)NCCCC[C@@H](C(=O)O)N(CC(C)C)S(=O)(=O)c2ccc(N)cc2)c1` [Compound No. 156, Nα-isobutyl-Nα-(4-aminobenzenesulfonyl)-Nε-(3-methoxydihydrocinnamoyl)-L-lysine] came in with a Ki of 16.7 nM.
To `COc1cccc(C=CC(=O)NCCCC[C@@H](C(=O)O)N(CC(C)C)S(=O)(=O)c2ccc([N+](=O)[O-])cc2)c1OC` [compound 110, Nα-isobutyl-Nα-(4-nitrobenzenesulfonyl)-Nε-(2,3-dimethoxycinnamoyl)-L-lysine] belongs greater than 300 nM.
Consider `O=C(N[C@@H](CCCCNS(=O)(=O)c1cc(Cl)ccc1Cl)C(=O)O)OCC1c2ccccc2-c2ccccc21` [Compound No. 54, Nε-(2,5-dichlorobenzenesulfonyl)-Nα-(9-fluorenylmethoxycarbonyl)-L-lysine], for which the Ki is greater than 6250 nM.
`CC(C)CN(C(CCCCNC(=O)OCc1ccccc1)C(=O)O)S(=O)(=O)c1ccc(I)cc1` (racemic) [Compound No. 48, Nα-isobutyl-Nα-(4-iodobenzenesulfonyl)-Nε-benzyloxycarbonyl-DL-lysine]: the Ki is greater than 100 nM.
`CC(C)CN([C@@H](CCCCNC(=O)CCc1c[nH]c2ccccc12)C(=O)O)S(=O)(=O)c1ccc([N+](=O)[O-])cc1` [Compound No. 95, Nα-isobutyl-Nα-(4-nitrobenzenesulfonyl)-Nε-(3-indolepropionyl)-L-lysine] came in with a Ki of 33.4 nM.
Turning to `O=C(Cc1c[nH]c2ccccc12)N[C@@H](CCCCNS(=O)(=O)c1ccc(Br)cc1)C(=O)O` [Compound No. 29, Nα-(3-indoleacetyl)-Nε-(4-bromobenzenesulfonyl)-L-lysine], the Ki came to 10500 nM.
The result for `O=C(N[C@@H](CCCCNS(=O)(=O)c1ccc(Br)cc1)C(=O)O)C1c2ccccc2-c2ccccc21` [Compound No. 38, Nα-(9-fluorenecarbonyl)-Nε-(4-bromobenzenesulfonyl)-L-lysine] reads 4700 nM; that for `O=C(N[C@@H](CCCCNS(=O)(=O)c1ccc(Cl)cc1)C(=O)O)OCC1c2ccccc2-c2ccccc21` [Compound No. 53, Nε-(4-chlorobenzenesulfonyl)-Nα-(9-fluorenylmethoxycarbonyl)-L-lysine], 4800 nM.
Consider `COC(=O)[C@H](CCCCNC(=O)OCC1c2ccccc2-c2ccccc21)N(CC(C)C)S(=O)(=O)c1ccc(C)cc1` [Compound No. 123, Nα-isobutyl-Nα-(4-methylbenzenesulfonyl)-Nε-(9-fluorenylmethoxycarbonyl)-L-lysine Methyl Ester], for which the Ki is greater than 300 nM.
Take `Cc1ccc(S(=O)(=O)N(CC(C)C)C(CCCCNC(=O)C2c3ccccc3-c3ccccc32)C(=O)O)cc1` (centres unmarked) [compound 83]: the Ki was 105 nM.

For the origin of these results see patent US20060079550A1, “Amino acid derivatives useful for the treatment of alzheimer's disease” (priority 2001, published 2006).
